Experimental findings from patent US10239887B2, “Positive allosteric modulators of the muscarinic acetylcholine receptor M4” (Vanderbilt University, priority 2016, dated 2019) are described below.

The assay has as its target T1, human mAChR M4 (Homo sapiens, UniProt P08173).
T1 sequence (P08173 1-479): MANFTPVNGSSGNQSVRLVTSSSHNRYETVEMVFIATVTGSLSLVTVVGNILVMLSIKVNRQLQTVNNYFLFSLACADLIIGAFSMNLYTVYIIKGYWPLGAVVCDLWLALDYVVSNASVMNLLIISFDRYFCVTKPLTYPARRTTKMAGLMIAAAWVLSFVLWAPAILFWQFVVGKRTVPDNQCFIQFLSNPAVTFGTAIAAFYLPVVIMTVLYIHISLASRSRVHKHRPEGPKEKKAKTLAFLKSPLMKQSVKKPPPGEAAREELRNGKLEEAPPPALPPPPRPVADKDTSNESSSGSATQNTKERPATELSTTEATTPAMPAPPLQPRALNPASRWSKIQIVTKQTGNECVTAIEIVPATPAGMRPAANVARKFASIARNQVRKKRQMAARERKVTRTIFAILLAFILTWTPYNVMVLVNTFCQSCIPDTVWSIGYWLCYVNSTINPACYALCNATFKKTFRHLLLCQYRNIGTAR
The assay can be described thus: mAChR M4 cell-based functional assay (calcium flux), human M4.

The mark [1] stands for this setting: Human M4 EC50 (nM), Table 11, calcium flux, PAM activity with EC20 acetylcholine.
[2] abbreviates: Table 11, % ACh maximum at 30 μM.
Setting [3] is: Human M4 EC50 (nM), Table 10, calcium flux, PAM activity with EC20 acetylcholine.
The mark [4] stands for this setting: Table 10, % ACh maximum at 30 μM.
[5] abbreviates: Human M4, % ACh maximum at 30 μM.
[6] abbreviates: Human M4 EC50, CHO-K1 hM4-Gqi5 cells, calcium flux, increase in EC20 acetylcholine response.

Structures can show the parent of a compound that is named as a salt. Where two headings read alike, the source gives them in different places.

Regarding `Cc1nnc2sc3c(N4CC[C@@H](C(C)(C)O)C4)ncnc3c2c1C` [Compound 353, 2-[(3R)-1-(3,4-dimethylpyrimido [4′,5′:4,5]thieno[2,3-c]pyridazin-8-yl)pyrrolidin-3-yl]propan-2-ol], the concentration giving a half-maximal response (EC50) under setting [1] was 321 nM. The Emax under setting [2] was determined as 48.8%.

`Cc1nnc2sc3c(NCc4ccc(C(=O)NC5CCCC5)c(Cl)c4)ncnc3c2c1C` [Compound 317, 2-chloro-N-cyclopentyl-4-[[(3,4-dimethylpyrimido [4′,5′:4,5]thieno[2,3-c]pyridazin-8-yl)amino]methyl]benzamide]: the EC50 under setting [1] amounted to 323 nM. For the same molecule, the Emax under setting [2] was 75.1%. `Cc1c(Cl)cnc2sc3c(N4CCC(F)(F)C4)ncnc3c12` [Compound 216, 8-chloro-4-(3,3-difluoropyrrolidin-1-yl)-9-methyl-pyrido [3′,2′:4,5]thieno[3,2-d] pyridimidine]: the EC50 under setting [3] is 685 nM. The maximum response (Emax) under setting [4] turned out to be 52.4%. As to `Cc1nnc2sc3c(NC4CN(c5ccc(C(F)(F)F)nc5)C4)ncnc3c2c1C` [Compound 22, 3,4-dimethyl-N-(1-(6-(trifluoromethyl)pyridin-3-yl)azetidin-3-yl) pyrimido[4′,5′:4,5]thieno [2,3-c]pyridazin-8-amine], under setting [5], the maximal effect (Emax) was determined as 36%. The EC50 under setting [6] was at least 10000 nM. As for `Cc1nnc2sc3c(NC4CN(c5cc(Cl)ncc5Cl)C4)ncnc3c2c1C` [Compound 85, N-[1-(2,5-dichloro-4-pyridyl)azetidin-3-yl]-3,4-dimethyl-pyrimido [4′,5′:4,5]thieno[2,3-c] pyridazin-8-amine], under setting [4], the maximum response (Emax) was 74.3%.

In the case of `Cc1ccc(O[C@H]2CCN(c3ncnc4c3sc3nnc(C)c(C)c34)C2)cn1` [Compound 364, 3,4-dimethyl-8-[(3S)-3-[(6-methyl-3-pyridyl)oxy]pyrrolidin-1-yl]pyrimido [4′,5′:4,5]thieno[2,3-c] pyridazine dihydrochloride], the 50% effective concentration (EC50) under setting [1] was 423 nM. The maximal response (Emax) under setting [2] stood at 50.7%.

On to `Cc1nnc2sc3c(NCc4ccc(F)c(C(=O)NC5CCC5)c4)ncnc3c2c1C` [Compound 177, N-cyclobutyl-5-[[(3,4-dimethylpyrimido [4′,5′:4,5]thieno[2,3-c]pyridazin-8-yl)amino]methyl]-2-fluoro-benzamide], for which the half-maximal effective concentration (EC50) under setting [3] was 570 nM. The maximum response (Emax) under setting [4] came to 98.5%. Taken in the same sequence, the figures for `Cc1nnc2sc3c(NCc4ccc(C(=O)N[C@H](C)C(F)(F)F)cc4)ncnc3c2c1C` [Compound 157, 4-[[(3,4-dimethylpyrimido [4′,5′:4,5]thieno[2,3-c]pyridazin-8-yl)amino]methyl]-N-[(1R)-2,2,2-trifluoro-1-methyl-ethyl]benzamide] were 244 nM and 86.1%. On to `Cc1nnc2sc3c(N4CC[C@@H](Oc5ccnc(Cl)c5)C4)ncnc3c2c1C` [Compound 336, 8-[(3R)-3-[(2-chloro-4-pyridyl)oxy]pyrrolidin-1-yl]-3,4-dimethyl-pyrimido [4′,5′:4,5]thieno[2,3-c] pyridazine], for which the EC50 under setting [1] is 105 nM. Under setting [2], the Emax was found to be 76.9%. As for `COc1ccc(C2CC2Nc2ncnc3c2sc2nnc(C)c(C)c23)cc1` (stereo not shown) [Compound 77, N-(2-(4-methoxyphenyl)cyclopropyl)-3,4-dimethylpyrimido [4′,5′:4,5]thieno[2,3-c] pyridazin-8-amine], under setting [3], the 50% effective concentration (EC50) was determined as 200 nM. The Emax under setting [4] is 86%.

Regarding `Cc1cc(CNc2ncnc3c2sc2nnc(C)c(C)c23)cnc1C` [Compound 148, N-[(5,6-dimethyl-3-pyridyl)methyl]-3,4-dimethyl-pyrimido [4′,5′:4,5]thieno[2,3-c] pyridazin-8-amine hydrochloride], the maximal effect (Emax) stood at 84%. Further, the concentration giving a half-maximal response (EC50) under setting [3] stood at 522 nM. For the molecule `Cc1nnc2sc3c(NCc4ccc(C(=O)NC5CCC5)cc4)ncnc3c2c1C` [Compound 150, N-cyclobutyl-4-[[(3,4-dimethylpyrimido [4′,5′:4,5]thieno[2,3-c]pyridazin-8-yl)amino]methyl]benzamide], the EC50 under setting [3] amounted to 105 nM. Further, under setting [4], the Emax turned out to be 74.9%.

With `Cc1nnc2sc3c(NC4CC5(C4)CN(C(=O)c4ccc(C(F)(F)F)cc4)C5)ncnc3c2c1C` [Compound 172, [6-[(3,4-dimethylpyrimido [4′,5′:4,5]thieno[2,3-c]pyridazin-8-yl)amino]-2-azaspiro[3.3]heptan-2-yl]-[4-(trifluoromethyl)phenyl]methanone], the EC50 under setting [3] worked out at 2950 nM. The maximum response (Emax) under setting [4] was 39.5%.

Take `Cc1nnc2sc3c(NCc4ccc(F)c(C(C)(C)O)c4)ncnc3c2c1C` [Compound 175, 2-[5-[[(3,4-dimethylpyrimido [4′,5′:4,5]thieno[2,3-c]pyridazin-8-yl)amino]methyl]-2-fluoro-phenyl]propan-2-ol]: under setting [3], the concentration giving a half-maximal response (EC50) was found to be 722 nM. Moreover, under setting [4], the Emax amounted to 52.5%. Taken in the same sequence, the figures for `Cc1nnc2sc3c(NCc4ccc(C(C)(C)O)c(Cl)c4)ncnc3c2c1C` [Compound 188, 2-[2-chloro-4-[[(3,4-dimethylpyrimido [4′,5′:4,5]thieno[2,3-c]pyridazin-8-yl)amino]methyl]phenyl]propan-2-ol] were 775 nM and 79.8%. On to `CNC(=O)c1cc(CN(C)c2ncnc3c2sc2nnc(C)c(C)c23)ccc1F` [Compound 333, 5-[[(3,4-dimethylpyrimido [4′,5′:4,5]thieno[2,3-c]pyridazin-8-yl)(methyl)amino]methyl]-2-fluoro-N-methyl-benzamide], for which, under setting [1], the EC50 came out at 1810 nM. The Emax under setting [2] stood at 39.1%. Consider `COc1ccc(CNc2ncnc3c2sc2nc(C)c(Cl)c(C)c23)cc1OC` [Compound 267, 8-chloro-N-[(3,4-dimethoxyphenyl)methyl]-7,9-dimethyl-pyrido[3′,2′:4,5]thieno [3,2-d]pyrimidin-4-amine hydrochloride], for which, under “Human M4 EC50 (nM), Table 10, unit μM (bounds)”, the EC50 was above 10000 nM. In addition, the Emax under setting [4] came to 33.6%. On to `Cc1cc(C)c2c(n1)oc1c(NC3CN(c4cc(Cl)ncc4Cl)C3)ncnc12` [Compound 290, N-[1-(2,5-dichloro-4-pyridyl)azetidin-3-yl]-7,9-dimethyl-pyrido[3′,2′:4,5]furo[3,2-d]pyrimidin-4-amine dihydrochloride], for which the EC50 under setting [3] worked out at 1490 nM. For the same molecule, under setting [4], the “Emax (%)” value is recorded as 49.29%. For the molecule `Cc1nnc2sc3c(NCc4ccc(N5CCN(C)CC5)cc4)ncnc3c2c1C` [Compound 111, 3,4-dimethyl-N-[[4-(4-methylpiperazin-1-yl)phenyl]methyl] pyrimido[4′,5′:4,5] thieno[2,3-c] pyridazin-8-amine hydrochloride], the EC50 under setting [3] came out at 126 nM. For the same molecule, under setting [4], the maximum response (Emax) worked out at 70.5%. For `Cc1nnc2oc3c(NCc4cccc(C(C)(C)O)c4)ncnc3c2c1C` [Compound 67, 2-[3-[[(3,4-dimethylpyrimido [4′,5′:4,5]furo[2,3-c]pyridazin-8-yl)amino]methyl]phenyl]propan-2-ol], the maximum response (Emax) under setting [5] was found to be 63.4%. `Cc1nnc2sc3c(N4CC(Oc5ccnc(Cl)c5)C4)ncnc3c2c1C` [Compound 349, 8-[3-[(2-chloro-4-pyridyl)oxy]azetidin-1-yl]-3,4-dimethyl-pyrimido[4′,5′:4,5] thieno[2,3-c]pyridazine dihydrochloride]: the concentration giving a half-maximal response (EC50) under setting [1] was 210 nM. Also, the Emax under setting [2] was 81.2%. `Cc1nnc2oc3c(NC4CC5(COC5)C4)ncnc3c2c1C` [Compound 71, 3,4-dimethyl-N-(2-oxaspiro[3.3]heptan-6-yl)pyrimido[4′,5′:4,5] furo[2,3-c]pyridazin-8-amine]: the maximum response (Emax) under setting [5] was determined as 37.2%. Under setting [6], the EC50 is above 10000 nM. Turning to `Cc1cc(C)c(OC2CN(c3ncnc4c3sc3nnc(C)c(C)c34)C2)cn1` [Compound 351, 8-[3-[(4,6-dimethyl-3-pyridyl)oxy]azetidin-1-yl]-3,4-dimethyl-pyrimido[4′,5′:4,5]thieno [2,3-c]pyridazine dihydrochloride], the EC50 under setting [1] amounted to 444 nM. The Emax under setting [2] turned out to be 62.1%. For the molecule `Cc1nnc2oc3c(NC4CC4)ncnc3c2c1C` [Compound 302, N-cyclopropyl-3,4-dimethyl-pyrimido [4′,5′:4,5]furo[2,3-c]pyridazin-8-amine], the half-maximal effective concentration (EC50) under setting [3] turned out to be 1300 nM. Besides, under setting [4], the maximal effect (Emax) amounted to 66.5%. For `Cc1nc2oc3c(NCc4cccc(C(C)(C)O)c4)ncnc3c2c(C)c1Cl` [Compound 288, 2-[3-[[(8-chloro-7,9-dimethyl-pyrido[3′,2′:4,5]furo[3,2-d]pyrimidin-4-yl)amino]methyl]phenyl]propan-2-ol], in that order: 1880 nM and 54.4%. For `Cc1nnc2sc3c(NCc4ccc(C(=O)N5CCCCC5)cc4)ncnc3c2c1C` [Compound 125, [4-[[(3,4-dimethylpyrimido [4′,5′:4,5]thieno[2,3-c]pyridazin-8-yl)amino]methyl]phenyl]-(1-piperidyl)methanone], in that order: 574 nM and 93.1%. As to `CCn1nccc1-c1ccc(CNc2ncnc3c2sc2nnc(C)c(C)c23)cc1` [Compound 343, N-[[4-(2-ethylpyrazol-3-yl)phenyl]methyl]-3,4-dimethyl-pyrimido [4′,5′:4,5]thieno[2,3-c] pyridazin-8-amine], the concentration giving a half-maximal response (EC50) under setting [1] stood at 850 nM. Under setting [2], the Emax amounted to 72.2%.
